Source: patent publication US20110091485A1, “MODULATION OF CELL JUNCTIONS” (priority 2007, published 2011)
Where a SMILES comes first, the peptide text is derived from it. [ ]: non-standard residue; d: D form. Nle = CCCC[C@H](N)C(=O)O

How the values were obtained:
Cx43 = Cx43 levels and Y247 phosphorylation in LA25 cells treated with ALLN (immunoblot); type: cell-based; conditions: LA25 cells at 35° C. (src active), ALLN 3 h
Procedure: FIG. 16. (A) Src activity leads to reduced levels of Cx43 in gap junctions unless rescued by ALLN treatment. LA25 cells grown at 40° C. or 35° C. (permissive) were untreated or treated with ALLN for 3 h and total Cx43 levels were determined by immunoblot. […] Cells grown at 35° C. were treated with ALLN for 3 h or untreated and pY247 and pY265 levels relative to total Cx43 were determined. In both A & B total cell lysates were harvested, blotted and probed (n=4 separate expts).

GJC = conditions: cited from earlier work
SFKs = experiment: SFK inhibition with PP2 in keratinocytes (Cx43 immunofluorescence, scratch wound); type: cell-based
Procedure: FIG. 13. […] Keratinocytes were pretreated with PP2 (5 μM, 2 h), scratch wounded and after 12 h were fixed in cold methoano/acetone and processed for immunofluorescence for total Cx43 (green). Cell nuclei were stained with DAPI (blue) and the scratched area is shown by an arrow.

Gp140 [1] = target: T1, Gp140 (Homo sapiens, UniProt Q9H5V8); type: cell-based; conditions: keratinocytes, P1C3 15 min, suramin 35 μM
T1 construct: endogenous in cells; host or cells: human keratinocytes (HKs)
T1 sequence (Q9H5V8 30-836): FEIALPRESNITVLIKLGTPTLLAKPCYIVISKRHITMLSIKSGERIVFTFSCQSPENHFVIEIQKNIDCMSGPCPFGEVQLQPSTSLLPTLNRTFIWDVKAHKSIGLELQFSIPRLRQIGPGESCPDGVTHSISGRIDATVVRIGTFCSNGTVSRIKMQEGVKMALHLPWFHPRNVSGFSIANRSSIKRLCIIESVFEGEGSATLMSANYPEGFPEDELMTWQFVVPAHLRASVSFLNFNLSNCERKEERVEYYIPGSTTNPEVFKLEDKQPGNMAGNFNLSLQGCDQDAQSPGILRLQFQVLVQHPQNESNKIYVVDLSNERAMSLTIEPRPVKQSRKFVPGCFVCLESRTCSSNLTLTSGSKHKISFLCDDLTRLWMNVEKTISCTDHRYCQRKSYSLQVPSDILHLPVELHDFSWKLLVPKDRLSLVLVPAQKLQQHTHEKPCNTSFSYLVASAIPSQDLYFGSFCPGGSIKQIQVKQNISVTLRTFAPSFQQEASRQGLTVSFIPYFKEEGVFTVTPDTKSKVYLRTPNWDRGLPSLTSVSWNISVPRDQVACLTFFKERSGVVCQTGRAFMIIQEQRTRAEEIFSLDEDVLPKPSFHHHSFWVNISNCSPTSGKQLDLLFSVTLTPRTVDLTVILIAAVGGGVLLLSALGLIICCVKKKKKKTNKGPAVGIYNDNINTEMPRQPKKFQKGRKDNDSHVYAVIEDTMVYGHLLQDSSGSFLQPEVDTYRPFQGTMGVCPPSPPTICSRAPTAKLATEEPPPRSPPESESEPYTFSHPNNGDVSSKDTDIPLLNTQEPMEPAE
Procedure: Zymosan or ActGp140 mAb were added to keratinocytes and incubated (30 min), washed, fixed (2% formaldehyde in cacodylate, 10 min) and permeabilized (0.5% Triton-X100, 5 min).
Human keratinocytes were grown in 30 μM Ca^+2 then treated with zymosan (20 μg/10^6 cells) for 30 min or 2 h, extracted with Triton X-100 (0.5% for 5 min) and fixed and stained with Abs against ZO-1 and afadin (AF-6).
Keratinocytes were treated (2 h) with ActGp140 mAb, washed, extracted with Triton X-100 detergent (0.5%, 5 min, 4° C.), fixed and stained with Abs against the indicated proteins.
Keratinocytes (grown in 30 μM Ca^+2) were untreated or treated with ActGp140 or NActGp140 mAbs for 1.5 hrs, washed, extracted with Triton X-100 (0.5% at 4° C. for 5 min) then stained.
(b-c) anti-Gp140 mAb (P1C3). (d) Same field as c stained with Abs against Gp140pY734.

Gp140 [2] = target: T1, Gp140; experiment: Phosphorylation of Gp140, SFK and PKCδ in keratinocytes (immunoblotting); type: cell-based; conditions: 5 min
Gp140 [3] = target: T2, Gp140 (Mus musculus, UniProt Q5U462); conditions: cited from earlier work
T2 construct: from tissue; host or cells: mouse epidermis
T2 sequence (Q5U462 30-833): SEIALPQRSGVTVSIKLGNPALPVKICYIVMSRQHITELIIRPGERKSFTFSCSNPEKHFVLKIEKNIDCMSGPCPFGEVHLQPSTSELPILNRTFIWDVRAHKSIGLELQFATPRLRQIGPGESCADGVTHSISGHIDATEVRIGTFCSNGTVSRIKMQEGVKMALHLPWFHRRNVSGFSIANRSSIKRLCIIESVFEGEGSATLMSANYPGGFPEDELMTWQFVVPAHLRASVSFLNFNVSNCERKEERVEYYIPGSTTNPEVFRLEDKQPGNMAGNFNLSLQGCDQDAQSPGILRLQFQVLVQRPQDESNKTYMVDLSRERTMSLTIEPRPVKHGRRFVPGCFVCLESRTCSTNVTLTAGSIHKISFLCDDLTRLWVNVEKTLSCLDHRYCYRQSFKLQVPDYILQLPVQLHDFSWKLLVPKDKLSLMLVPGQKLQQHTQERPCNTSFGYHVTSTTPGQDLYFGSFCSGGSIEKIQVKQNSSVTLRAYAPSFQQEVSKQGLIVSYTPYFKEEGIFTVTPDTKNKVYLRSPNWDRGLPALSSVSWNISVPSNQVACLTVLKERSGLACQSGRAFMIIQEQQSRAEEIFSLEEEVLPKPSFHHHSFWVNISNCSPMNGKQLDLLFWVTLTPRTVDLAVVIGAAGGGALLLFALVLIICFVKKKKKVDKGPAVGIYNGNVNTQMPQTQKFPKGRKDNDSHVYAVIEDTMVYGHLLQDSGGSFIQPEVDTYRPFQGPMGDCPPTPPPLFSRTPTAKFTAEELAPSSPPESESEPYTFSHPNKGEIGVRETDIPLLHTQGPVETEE

Gp140 [4] = target: T1, Gp140; experiment: α-catenin localization in cell-cell contacts of keratinocytes grown in low Ca+2; type: cell-based; conditions: 30 μM Ca+2, suramin 35 μM, 3 hrs
Procedure: FIG. 25. Signals through Gp140/CDCP1 promote α-catenin in cell-cell contacts. Human keratinocytes were grown in low Ca^+2 (30 μM) in order to disassemble adherens junctions that contain cadherins and α-catenin. The keratinocytes were treated without (−Left panel) or with (+Right Panel) Gp140 siRNA to knockdown expression of Gp140. […] Arrows indicate minor subpopulation of cells where Gp140 was not knocked down surrounded by the majority of Gp140 was knocked down.
Signals through Gp140/CDCP1 promote α-catenin in cell-cell contacts. Human keratinocytes were grown in low Ca^+2 (30 μM) in order to disassemble adherens junctions that contain cadherins and α-catenin. The keratinocytes were treated without or with Gp140 siRNA to knockdown expression of Gp140. […] Arrows indicate minor subpopulation of cells where Gp140 was not knocked down surrounded by the majority of Gp140 was knocked down.

## CCCC[C@@H](C=O)NC(=O)[C@H](CC(C)C)NC(=O)[C@H](CC(C)C)NC(C)=O [ALLN] (Ac-Leu-Leu-[Nle]-aldehyde)
Cx43
  Y247 phosphorylation relative to total Cx43: increases the levels of Y247 phosphorylation relative to total Cx43

## CC1(C)[C@@H](OC(=O)CCC(=O)O)CC[C@]2(C)[C@H]3C(=O)C=C4[C@@H]5C[C@@](C)(C(=O)O)CC[C@]5(C)CC[C@@]4(C)[C@]3(C)CC[C@@H]12 [CBX, 18α-carbenoxalone]
GJC
  wound outgrowth: prevents wound outgrowth when applied before, but not after wounding

## CC(C)(C)n1nc(-c2ccc(Cl)cc2)c2c(N)ncnc21 [PP2]
SFKs; PP2 5 μM, 2 h pretreatment, scratch wound, 12 h
  gap junctional density at wound cell-cell interfaces (total Cx43): increases gap junctional density at wound cell-cell interfaces
SFKs; keratinocytes
  cell surface Gp140, junctional Cx43 and dye transfer: dramatic increases in cell surface Gp140 and junctional Cx43 and dye transfer

## Cc1ccc(C(=O)Nc2ccc(S(=O)(=O)O)c3cc(S(=O)(=O)O)cc(S(=O)(=O)O)c23)cc1NC(=O)c1cccc(NC(=O)Nc2cccc(C(=O)Nc3cc(C(=O)Nc4ccc(S(=O)(=O)O)c5cc(S(=O)(=O)O)cc(S(=O)(=O)O)c45)ccc3C)c2)c1 [suramin]
Gp140 [1]
  phosphorylation and assembly of Gp140 in detergent-resistant membrane clusters in cell-cell contacts: increases phosphorylation and assembly of Gp140 in detergent-resistant Gp140 membrane clusters
Gp140 [2]
  PKC activity determined by phosphorylation of VaspS157: increased
Gp140 [2]; suramin 35 μM
  phosphorylation of Gp140Y734, SFKY416 and PKCdY311 by SFKs: increased phosphorylation
Gp140 [3]
  phosphorylation and cleavage of Gp140 in mouse epidermis: induces phosphorylation and proteolytic cleavage of Gp140 to p80
Gp140 [4]
  α-catenin in cell-cell contacts: dramatic accumulation of α-catenin in cell-cell contacts
